Data as given in ChEMBL document CHEMBL5344405, “Seleno-vs. thioether triazine derivatives in search for new anticancer agents overcoming multidrug resistance in lymphoma” (Eur J Med Chem, 2022).
Active and inactive are the calls of the source. No cut-off for these calls is given here.

Experiments:
[1] = test system: L5178Y; experiment: Antiproliferative activity against parental mouse L5178Y cells assessed as inhibition of cell growth incubated for 72 hrs by MTT assay; format: functional, cell-based
[2] = test system: L5178Y; experiment: Antiproliferative activity against multidrug resistant mouse L5178Y cells expressing ABCB1 assessed as inhibition of cell growth incubated for 72 hrs by MTT assay; format: functional, cell-based
[3] = test system: L5178Y; experiment: Cytotoxicity against parental mouse L5178Y cells assessed as inhibition of cell growth incubated for 24 hrs by MTT assay; format: functional, cell-based
[4] = test system: L5178Y; experiment: Cytotoxicity against multidrug resistant mouse L5178Y cells expressing ABCB1 assessed as inhibition of cell growth incubated for 24 hrs by MTT assay; format: functional, cell-based
[5] = test system: Jurkat; experiment: Induction of cell cycle arrest in human Jurkat cells assessed as reduction in cyclin D1 gene expression at 50 uM incubated for 24 hrs by qPCR analysis; format: functional, cell-based
[6] = Cytotoxicity against human skin fibroblast cells assessed as inhibition of cell growth incubated for 72 hrs by MTS assay; format: toxicity, cell-based
[7] = test system: Jurkat; experiment: Induction of cell cycle arrest in human Jurkat cells assessed as increase in p21 transcription at 50 uM incubated for 24 hrs by qPCR analysis; format: functional, cell-based
[8] = Cytotoxicity against human HuT 102 cells assessed as inhibition of cell growth incubated for 72 hrs by MTS assay; format: functional, cell-based; details: HuT-102, 72 h
[9] = test system: L5178Y; experiment: Synergistic antiproliferative activity against multidrug resistant mouse L5178Y cells expressing ABCB1 assessed as combination index at 50 uM incubated for 72 hrs in presence of doxorubicin at 17.242 uM by checkerboard assay; format: functional
[10] = test system: Jurkat; experiment: Induction of cell cycle arrest in human Jurkat cells assessed as increase in p53 transcription at 50 uM incubated for 24 hrs by qPCR analysis; format: functional, cell-based
[11] = test system: Jurkat; experiment: Synergistic induction of cell cycle arrest in human Jurkat cells assessed as reduction in cyclin E1 gene expression at 50 uM incubated for 24 hrs in presence of doxorubicin at 50 nM by qPCR analysis; format: functional, cell-based
[12] = test system: Jurkat; experiment: Induction of cell cycle arrest in human Jurkat cells assessed as reduction in cyclin E1 gene expression at 50 uM incubated for 24 hrs by qPCR analysis; format: functional, cell-based
[13] = test system: L5178Y; experiment: Synergistic antiproliferative activity against multidrug resistant mouse L5178Y cells expressing ABCB1 assessed as combination index at 100 uM incubated for 72 hrs in presence of doxorubicin at 17.242 uM by checkerboard assay; format: functional
[14] = test system: Jurkat; experiment: Synergistic induction of cell cycle arrest in human Jurkat cells assessed as reduction in cyclin D1 gene expression at 50 uM incubated for 24 hrs in presence of doxorubicin at 50 nM by qPCR analysis; format: functional, cell-based
[15] = test system: L5178Y; experiment: Synergistic antiproliferative activity against multidrug resistant mouse L5178Y cells expressing ABCB1 assessed as combination index at 200 uM incubated for 72 hrs in presence of doxorubicin at 17.242 uM by checkerboard assay; format: functional
[16] = test system: L5178Y; experiment: Synergistic antiproliferative activity against multidrug resistant mouse L5178Y cells expressing ABCB1 assessed as combination index at 150 uM incubated for 72 hrs in presence of doxorubicin at 17.242 uM by checkerboard assay; format: functional
[17] = test system: Jurkat; experiment: Synergistic induction of cell cycle arrest in human Jurkat cells assessed as increase in p53 gene expression at 50 uM incubated for 24 hrs in presence of doxorubicin at 50 nM by qPCR analysis; format: functional, cell-based
[18] = test system: Jurkat; experiment: Induction of cell cycle arrest in human Jurkat cells assessed as increase in p53 gene expression at 50 uM incubated for 24 hrs by qPCR analysis; format: functional, cell-based
[19] = test system: Jurkat; experiment: Induction of cell cycle arrest in human Jurkat cells assessed as increase in p21 gene expression at 50 uM incubated for 24 hrs by qPCR analysis; format: functional, cell-based
[20] = test system: Jurkat; experiment: Synergistic induction of cell cycle arrest in human Jurkat cells assessed as increase in p21 gene expression at 50 uM incubated for 24 hrs in presence of doxorubicin at 50 nM by qPCR analysis; format: functional, cell-based

Row | SMILES | IC50 [1] | IC50 [2] | IC50 [3] | IC50 [4] | also measured
1 | CCCCC(SCc1ccccc1)c1nc(N)nc(N2CCN(C)CC2)n1 (stereo unspecified) | 25.8 µM | 28.1 µM | 19.7 µM | 30.6 µM | –
2 | CCCC(Sc1ccccc1)c1nc(N)nc(N2CCN(C)CC2)n1.Cl (stereo unspecified) | 15.5 µM | 16.6 µM | 15 µM | 21.2 µM | Activity [5]: inactive; IC50 at 72 h [6]: > 100 µM; Activity [7]: Active; IC50 [8]: 58.2 µM; CI [9]: 0.044; Activity [10]: Active; Activity [11]: Active; Activity [12]: Active
3 | CC(SCc1ccccc1)c1nc(N)nc(N2CCN(C)CC2)n1 (stereo unspecified) | > 100 µM | 92.4 µM | 91.8 µM | > 100 µM | –
4 | CCCCC(Sc1ccc2ccccc2c1)c1nc(N)nc(N2CCN(C)CC2)n1 (stereo unspecified) | 36.4 µM | 35.5 µM | 23.2 µM | 45.2 µM | –
5 | CN1CCN(c2nc(N)nc(CCC[Se]c3ccccc3)n2)CC1.Cl | 13.3 µM | 11.6 µM | 33.4 µM | 42.2 µM | Activity [5]: Active; IC50 at 72 h [6]: > 100 µM; CI [13]: 0.309; IC50 [8]: 62 µM; Activity [14]: Active; Activity [11]: Active; Activity [12]: Active
6 | CN1CCN(c2nc(N)nc(CSc3ccccc3)n2)CC1 | > 100 µM | 79.9 µM | > 100 µM | > 100 µM | –
7 | CN1CCN(c2nc(N)nc(CCSCc3ccccc3)n2)CC1.Cl | 38.6 µM | 32.2 µM | 82.4 µM | 70.9 µM | CI [15]: 0.323
8 | CCCCC(Sc1ccccc1)c1nc(N)nc(N2CCN(C)CC2)n1.Cl (stereo unspecified) | 20.6 µM | 17.4 µM | 15.5 µM | 21.6 µM | CI [9]: 0.148
9 | CC(Sc1cccc2ccccc12)c1nc(N)nc(N2CCN(C)CC2)n1 (stereo unspecified) | 23.3 µM | 32.8 µM | 15.5 µM | 32.4 µM | –
10 | CCCC(Sc1ccc2ccccc2c1)c1nc(N)nc(N2CCN(C)CC2)n1 (stereo unspecified) | 43.3 µM | 42.7 µM | 23.9 µM | 53.2 µM | –
11 | COc1cccc2c1C(=O)c1c(O)c3c(c(O)c1C2=O)C[C@@](O)(C(=O)CO)C[C@@H]3O[C@H]1C[C@H](N)[C@H](O)[C@H](C)O1 [DOXORUBICIN] | 0.28 µM | 1.75 µM | 0.7 µM | 2.14 µM | –
12 | CC(Sc1ccc2ccccc2c1)c1nc(N)nc(N2CCN(C)CC2)n1 (stereo unspecified) | 21.3 µM | 18.6 µM | 18.4 µM | 28.1 µM | –
13 | CCC(Sc1cccc2ccccc12)c1nc(N)nc(N2CCN(C)CC2)n1 (stereo unspecified) | 28.2 µM | 31.1 µM | 22.6 µM | 30.3 µM | –
14 | CN1CCN(c2nc(N)nc(CCC[Se]Cc3ccccc3)n2)CC1 | 30.8 µM | 38.6 µM | 32 µM | 57.4 µM | –
15 | CN1CCN(c2nc(N)nc(CCCSc3ccccc3)n2)CC1.Cl | 34.1 µM | 28.6 µM | 30.1 µM | 52 µM | CI [16]: 0.199
16 | CCC(SCc1ccccc1)c1nc(N)nc(N2CCN(C)CC2)n1 (stereo unspecified) | 83 µM | 67.3 µM | 59.2 µM | > 100 µM | –
17 | CCC(Sc1ccccc1)c1nc(N)nc(N2CCN(C)CC2)n1.Cl (stereo unspecified) | 58 µM | 47 µM | 54.4 µM | 81.5 µM | CI [15]: 0.127
18 | CCC([Se]Cc1ccccc1)c1nc(N)nc(N2CCN(C)CC2)n1 (stereo unspecified) | 10.7 µM | 11.8 µM | 8.66 µM | 25.3 µM | Activity [5]: Active; IC50 at 72 h [6]: > 100 µM; Activity [17]: Active; Activity [18]: Active; IC50 [8]: 44.3 µM; Activity [12]: Active; Activity [19]: Active; Activity [20]: Active
19 | CCC(Sc1ccc2ccccc2c1)c1nc(N)nc(N2CCN(C)CC2)n1 (stereo unspecified) | 21.2 µM | 27.5 µM | 17.8 µM | 30.4 µM | –
20 | CN1CCN(c2nc(N)nc(C[Se]Cc3ccccc3)n2)CC1 | 45.6 µM | 22.7 µM | > 100 µM | > 100 µM | –
21 | CCCC(SCc1ccccc1)c1nc(N)nc(N2CCN(C)CC2)n1.Cl (stereo unspecified) | 24.2 µM | 23.5 µM | 36 µM | 54.6 µM | CI [16]: 0.142
22 | CN1CCN(c2nc(N)nc(CSCc3ccccc3)n2)CC1 | 57.2 µM | 37.2 µM | > 100 µM | > 100 µM | –
23 | CN1CCN(c2nc(N)nc(CSc3ccc4ccccc4c3)n2)CC1.Cl | 19 µM | 13.5 µM | 27.1 µM | 36.6 µM | CI [13]: 0.415
24 | CN1CCN(c2nc(N)nc(C(C)(C)Sc3ccc4ccccc4c3)n2)CC1 | 26.4 µM | 38.5 µM | 24.8 µM | 29 µM | –
25 | CN1CCN(c2nc(N)nc(CCCSCc3ccccc3)n2)CC1 | 38.8 µM | 51.5 µM | 27.7 µM | 61.3 µM | –
26 | CN1CCN(c2nc(N)nc(C(C)(C)Sc3ccccc3)n2)CC1.Cl | 65.2 µM | 53 µM | 68.8 µM | 83.9 µM | CI [15]: 0.41
27 | CC(Sc1ccccc1)c1nc(N)nc(N2CCN(C)CC2)n1 (stereo unspecified) | > 100 µM | 68.7 µM | > 100 µM | > 100 µM | –
28 | CN1CCN(c2nc(N)nc(C(C)(C)Sc3cccc4ccccc34)n2)CC1 | 19.9 µM | 24.7 µM | 14.8 µM | 23.4 µM | –
29 | CN1CCN(c2nc(N)nc(CCSc3ccccc3)n2)CC1 | 54.5 µM | 33.8 µM | 60.8 µM | 67 µM | –
